For this assay, the system named is Mycobacterium tuberculosis. In words: Antimycobacterial activity against Mycobacterium bovis BCG assessed as inhibition of mycobacterial replication after 6 days by microplate Alamar blue assay. It is filed as functional. The settings on record: variant bovis BCG, 144 h. (Alamar Blue is a resazurin reagent that responds to reducing activity.)

Each structure is given as a SMILES string. Converted amounts (≈) assume the structure as drawn.

The term MIC90 denotes an inhibitory concentration at the 90% level, which refers to growth in some studies and to a panel of isolates in others. For `CO[C@H]1/C=C/O[C@@]2(C)Oc3c(C)c(O)c4c(O)c(c(/C=N/N5CCN(C)CC5)c(O)c4c3C2=O)NC(=O)/C(C)=C\C=C\[C@H](C)[C@H](O)[C@@H](C)[C@@H](O)[C@@H](C)[C@H](OC(C)=O)[C@@H]1C` [RIFAMPIN], the MIC90 is 1 µg/mL (≈ 1.22 µM).

As usually defined, the MIC50 is an inhibitory concentration at the 50% level, which refers to growth in some studies and to a panel of isolates in others. Turning to `CCCCCC#Cc1c[nH]c(=O)nc1N`, the MIC50 is 12.5 µg/mL (≈ 60.9 µM).

As to `Nc1nc(=O)[nH]cc1C#Cc1ccccc1`, the MIC50 was found to be 25 µg/mL (≈ 118 µM).

As for `CCCCCCCCC#Cc1c[nH]c(=O)nc1N`, the MIC50 is 50 µg/mL (≈ 202 µM).
